In paper PMC9545474, “Anticancer Water‐Soluble Organoruthenium Complexes: Synthesis and Preclinical Evaluation” (Chembiochem, 2022):

Columns and labels:
[1] = tested on: H460 non-small-cell lung cancer cells; assay: 24-hour MTT chemosensitivity assay with 72-hour recovery, H460; type: cell-based; conditions: for IC50: 24 h exposure, 72 h recovery, MTT, read-out: IC50 values ±SD, H460; for Selectivity index (SI), H460: mean IC50 PNT2 / mean IC50 H460
Description: Chemosensitivity studies were undertaken using a 24‐hour MTT assay, with a 72‐hour recovery period. The IC50 values were determined against ovarian A2780 (cisplatin‐sensitive) and A2780cisR (cisplatin‐resistant) cancer cell lines, non‐small‐cell lung H460 cancer cell line, and normal prostate PNT2 cell line, exposed to each of compounds 4–8, cisplatin or the phosphine ligands (Table 1 and S4, Figures S29–S31). […] This is unusual but can be related to solubility issues not visible for the naked eye and thus hindering its activity in cells. […] When tested on their own, the phosphine ligands are not active below 100 μM for all four cell lines. […] This therefore prevents comparison with the well‐known RAPTA family, and more especially with RAPTA−C which bears a PTA ligand and a p‐cym ligand, making this complex relatively similar in terms of geometry with complex 4.[21] […] This confirms the interest of the sulfur coordinating atom in terms of cytotoxicity for organoruthenium complexes.[23]
Chemosensitivity assay: In vitro chemosensitivity tests were performed against A2780, A2780cisR, PNT2 and H460 cells. Cells were routinely maintained as monolayer cultures in RPMI 1640 medium supplemented with 10 % foetal calf serum, penicillin (100 I.U./mL) and streptomycin (100 μg/mL), sodium pyruvate (1 mM) and L‐glutamine (2 mM). For chemosensitivity studies, cells were seeded in 96‐well plates at a concentration of 7.5×10^3 cells per well and the plates were incubated for 24 h at 37 °C and a 5 % CO2 humidified atmosphere prior to drug exposure.
Complexes were dissolved in either DMSO (complexes 4, 5, and 8) or PBS (complexes 6 and 7) to provide stock solutions which were further diluted with media to provide a range of final concentrations. Drug‐media solutions were added to cells (the final concentration of DMSO was less than 1 % (v/v) in all cases) and incubated for 24 h at 37 °C and a 5 % CO2 humidified atmosphere. The drug‐media solution was removed from the wells and the cells were washed with PBS (100 μL, twice) and 200 μL of complete fresh media were added to each well. The plates were further incubated for 72 h at 37 °C and a 5 % CO2 humidified atmosphere to allow for a period of recovery. 3‐(4,5‐dimethylthiazol‐2‐yl)‐2,5‐diphenyltetrazolium bromide (MTT) (40 μL, 2.5 mg/mL) was added to each well and plates were incubated for 2 h. All solutions were then removed and 100 μL of DMSO was added to each well in order to dissolve the purple formazan crystals. A Thermo Scientific Multiskan EX microplate photometer was used to measure the absorbance in each well at 570 nm. Cell survival was determined as the absorbance of treated cells divided by the absorbance of controls and expressed as a percentage. The IC50 values were determined from plots of % survival against drug concentration. Each experiment was repeated in triplicates of triplicates and a mean value was obtained and stated as IC50 (μM) ± SD. Untreated cells were used as a negative control, and cells treated with cisplatin were used as a positive control.

A2780 cells = assay: JC-10 mitochondrial membrane potential assay by flow cytometry; type: cell-based, human; conditions: A2780, 24 h, complexes at IC50, cisplatin 6.5 µM
Text: A membrane potential sensitive fluorescent probe JC‐10 was used to determine whether the apoptosis induced by complexes 6 and 8 is accompanied by changes in the mitochondrial membrane potential (ΔΨm) of A2780 cells. JC‐10 aggregates inside mitochondria and emits orange fluorescence. Following membrane […], JC‐10 is disaggregated and this in turn reduces the orange fluorescence.
Figure 8 Effect of complexes 6 and 8 on the mitochondrial membrane potential. […] The percentages of cells with depolarised mitochondrial membrane potential were assessed by flow cytometry after staining with JC‐10. The data are expressed as the means±SD of the three individual experiments.
Mitochondrial membrane potential assay: Analysis of the changes of mitochondrial potential in A2780 cells after exposure to complexes 6 and 8 was carried out using the JC‐10 mitochondrial membrane potential assay kit (abcam®) according to the manufacturer's instructions. Briefly, 1.0×10^6 cells per well were seeded in a 6‐well plate and incubated for 24 at 37 °C and a 5 % CO2 humidified atmosphere. […] Supernatants were removed by suction, and each well was washed with PBS before detaching the cells using trypsin. Staining of the samples was done in tubes protected from light, incubating for 30 min in the dark at room temperature. Samples were immediately analysed on a BD Accuri C6 Plus System Flow Cytometer, reading the reduction of fluorescence in the FL2 channel.

[2] = tested on: A2780cisR subcutaneous tumour xenograft; assay: Efficacy in A2780cisR (A2780/cis) subcutaneous tumour xenograft model; type: in vivo, Female Balb/c immunodeficient nude mice; conditions: 6 at 50 mg/kg, 8 at 15 mg/kg, i.p.; for Median time to RTV2 / Maximum % weight loss / Growth delay: A2780/cis xenograft, days 0–4; for Maximum % weight loss: day in brackets; for Growth delay: versus untreated
Description: Compounds: All compounds were provided in powdered form and stored in the −20 °C freezer. They were formulated just before use. […] The drugs were then administered within 10 minutes of initial dilution.
Animals: Female Balb/c immunodeficient nude mice aged 6–12 weeks were used (Envigo, Blackthorn, UK). Mice were kept in cages housed in isolation cabinets in an air‐conditioned room with regular alternating cycles of light and darkness. They received Teklad 2018 diet (Envigo, Blackthorn, UK) and water ad libitum. All animal procedures were carried out under a project licence issued by the UK Home Office and UK National Cancer Research Institute Guidelines for the Welfare of Animals were followed throughout.
S.c. xenograft tumours: A2780/WT and A2780/cis tumours were excised from a donor animal, placed in sterile physiological saline containing antibiotics and cut into small fragments of approximately 5 mm^3. Under brief general inhalation anaesthesia, fragments were implanted in the flank of each mouse using a trocar. Once the tumours could accurately be measured by callipers, the mice were allocated into groups (control or treated) by restricted randomisation to keep group mean tumour size variation to a minimum, with 3 animals set up per group.
Evaluation of efficacy in s.c. xenograft models: The compounds were prepared fresh on the days of treatment as described above and administered i. p. to mice on days 0–4 in a volume of 0.1 mL per 10 g of body weight. […] The negative control group was untreated.
The effects of therapy were assessed by frequent monitoring growth of the tumours and body weight. Two‐dimensional calliper measurements of the tumours were taken, and volumes calculated using the formula (a^2×b)/2, where a is the smaller and b the larger diameter of the tumour. Tumour volume was then normalised to the respective volume on day 0, and semi‐log plots of relative tumour volume (RTV) versus time were made. Mann‐Whitney U tests were performed to determine the statistical significance of any differences in growth rate (based on tumour volume doubling time, RTV2) between control and treated groups.

Compound: (η^6‐p‐cymene)(TPPTS)Ru(Mnt) [Complex 6]
- IC50 [1]: 2 ± 0.2 µM
- Selectivity index (SI), H460 [1]: 0.80
- % cell population with high orange fluorescence (A2780 cells; Experiment 1): 60.4%
- % cell population with low orange fluorescence (A2780 cells; Experiment 1): 39.6%
- % cell population with high orange fluorescence (A2780 cells; Experiment 2): 55.5%
- % cell population with low orange fluorescence (A2780 cells; Experiment 2): 44.5%
- % cell population with high orange fluorescence (A2780 cells; Experiment 3): 62.7%
- % cell population with low orange fluorescence (A2780 cells; Experiment 3): 37.3%
- % cell population with high orange fluorescence (A2780 cells; Summary, mean values ± SD): 59.5 ± 3.7%
- % cell population with low orange fluorescence (A2780 cells; Summary, mean values ± SD): 40.5 ± 3.7%
- Median time to RTV2 [2]: 3.0 days
- Maximum % weight loss [2]: 2%
- Growth delay [2]: 0.2 days

Compound: Cc1ccc(C(C)C)cc1.N#CC1=C(C#N)[S][Ru-]([P+](c2ccccc2)(c2ccccc2)c2ccccc2)[S]1 [Complex 8, (η^6‐p‐cymene)(PPh3)Ru(Mnt)]
- IC50 [1]: 5.7 ± 0.8 µM
- Selectivity index (SI), H460 [1]: 0.42
- % cell population with high orange fluorescence (A2780 cells; Experiment 1): 81.9%
- % cell population with low orange fluorescence (A2780 cells; Experiment 1): 18.1%
- % cell population with high orange fluorescence (A2780 cells; Experiment 2): 82.5%
- % cell population with low orange fluorescence (A2780 cells; Experiment 2): 17.5%
- % cell population with high orange fluorescence (A2780 cells; Experiment 3): 80.0%
- % cell population with low orange fluorescence (A2780 cells; Experiment 3): 20.0%
- % cell population with high orange fluorescence (A2780 cells; Summary, mean values ± SD): 81.5 ± 1.3%
- % cell population with low orange fluorescence (A2780 cells; Summary, mean values ± SD): 18.5 ± 1.3%
- Median time to RTV2 [2]: 10.0 days
- Maximum % weight loss [2]: 2%
- Growth delay [2]: 7.2 days
- Toxicity in xenograft study ([2]; A2780cisR xenograft): No toxicity was observed
